Bridges are numbered along the chain shown (N, C = ends). Where no end group is shown, it is not given here.
Columns and labels:
[1] = tested on: auditory nerve and generators caudal to the IC; experiment: Auditory brainstem responses (ABR); format: in vivo, mouse
Description: (§1) The temperature was maintained near 25 °C.
ABR recordings were acquired after the mice were anesthetized with ketamine (120 mg/kg) and xylazine (10 mg/kg) I.P., and respiration was monitored throughout to determine when additional supplemental doses were needed. Body temperature was kept constant at 37 °C using a feedback controlled heating pad (Physitemp TCAT2-LV Controller, Clifton, NJ). Stimuli and recordings were generated digitally and controlled using a TDT RZ6 Multi-I/O Processor and their BioSig/SigGen software. Acoustic signals were played through a multi-field (MF1) magnetic speaker (TDT, Alachua, FL) with a total harmonic distortion < = 1% from 1 kHz to 50 kHz, centered 0° azimuth in regards to the animal at a distance of 10 cm from the ear pinna. Tone bursts were presented at frequencies of 6, 12, 16, 20, 24, and 36 kHz (3 ms duration, 1 ms rise/fall time, alternating polarity) at a rate of 29 per second, attenuated in 5 dB steps from 80 dB SPL to 15 dB below threshold or 5 dB SPL, whichever was lower. Threshold was determined by visual inspection as the lowest intensity level which produced a defined wave in both replicates. All signals were calibrated using a Larsen Davis preamplifier, model 2221, with a 1/4″ microphone and a Larson Davis CAL200 Precision Acoustic Calibrator (PCB Piezotronics, Inc., Depew, NY). ABR recordings were acquired using a TDT RA4LI low-impedance digital headstage and RA4PA Medusa preamp with the active (noninverting) electrode inserted at the vertex, the reference (inverting) electrode below the left ear, and the ground electrode below the right ear. The responses were amplified (20×), filtered (300 Hz–3 kHz), and averaged using BioSig software and the System III hardware (TDT) data-acquisition system. A total of 256 tone burst signal and 150 GIN signal recordings were replicated for each acquisition, and muscle artifacts exceeding 7 μV were rejected from the averaged response. All recordings took place in a soundproof booth lined with echo-attenuating acoustic foam. ABR waveforms were analyzed using a custom MatLab program that automatically determined peak latencies and amplitudes in combination with secondary verification by an experimenter blind to the treatment group.

[2] = tested on: mouse inferior colliculus (auditory midbrain); experiment: Sound evoked activity within excitatory receptive field (eRF), topical application on dura
BK channel = settings: small molecule BK channel blocker; cited from earlier work
Excerpt: CNS pharmacological applications favor pharmaceutical agents with high affinity, specificity, amenability to large-scale synthesis and BBB permeability. Peptide drugs have the potential for high affinity and specific binding to ion channel targets, as shown by voltage-gated potassium channel (Kv) peptide toxins. In addition to natural products, phage display screens have successfully selected peptides with high target affinity. For example, a phage display screen of scorpion toxin derivatives selected a novel peptide that blocks the Kv3.1 channel in the nanomolar range[41]. Here, a phage displ ...

[3] = Blood-brain barrier crossing inferred from functional activity in the IC; format: in vivo, mouse; settings: inferred from suppression of sound evoked activity after topical (dura) or systemic (0.3 mg/kg I.P.) administration
Description: as §1

[4] = cited from earlier work
Excerpt: A pharmacological agent must cross the BBB in order to act at CNS-located targets. […] Many ion channel-targeted peptides are regarded as having low BBB permeability due to the large difference between the lethal dose when administered peripherally versus centrally. For example, the LD50 for peripherally administered dendrotoxin is in the tens of mg/kg, while it is ten thousand fold l ...

[5] = target: T1, human BKα channel (ZERO isoform) expressed in HEK293 cells (Homo sapiens, UniProt Q12791); experiment: Patch-clamp recording, inside-out patches, extracellular application; format: cell-based; settings: for effect on Po (post vs. pre peptide): 500 nM linear (reduced) LS3, extracellular, any voltage, compared with 500 nM cyclic LS3
T1 construct: expressed in transfected cells; host or cells: HEK293 (ATCC), transient transfection with Lipofectamine 2000; EGFP cotransfected as a separate marker
Description: HEK293 cells (ATCC, Manassas, VA) were grown according to standard procedures. Cells were cultured at 37 °C in a 5% CO2 atmosphere in Dulbecco’s modified Eagle’s medium with L-glutamine, sodium pyruvate and 10% fetal bovine serum (Invitrogen). Cell lines were split with trypsin/EDTA in Hanks’ balanced salt solution (Invitrogen) up to 25–30 cycles. For phage display, stable lines stably expressed rSK2 or hBKα ZERO isoform. Cells were transfected (Lipofectamine 2000, Invitrogen) with hGlyRα1 and used 48 hours later. For electrophysiological recordings, cells were transfected with hBKα ZERO isoform. Enhanced green fluorescent protein (EGFP) was cotransfected as a marker. Electrophysiological recordings were made 16–72 h after transfection. Although the profile of BK channel composition varies from tissue to tissue, the ZERO BK channel splice variant is widely expressed, particularly in the nervous system, serving as a representative form for studying the modulation of BK channel gating.
Voltage-clamp recordings were performed at room temperature (22–24 °C) using an inside-out configuration on patches pulled from HEK293 cells. The extracellular solution contained the following (in mM): 2 KCl, 136 KOH, 20 HEPES, 2 MgCl2, adjusted to pH 7.2 with MeSO3H. In order to apply peptide to the extracellular surface, patch electrodes (7–20 MΩ in resistance) were tip-filled with normal extracellular solution and backfilled with extracellular solution containing LS3. Enough normal extracellular solution was included to provide at least five minutes of peptide-free recording (determined by plotting Po vs. time). The intracellular solution (in the bath) contained the following (in mM): 6 KCl, 132 KOH, 20 HEPES, adjusted to pH 7.2 with MeSO3H. To achieve 750 nM free Ca^2+, […] and 5 mM EGTA were included, a ratio verified by measurement with a Ca^2+-sensitive electrode. Voltage-clamp recordings made with an Axopatch 200 A amplifier and custom macros in IgorPro. Analysis was performed with QUB (http://www.qub.buffalo.edu), including Po, mean open time and three component exponential fits to closed dwell times. Group means±SEM for post-peptide measures were plotted relative to pre-peptide values and compared with pre values via planned paired t-tests.

[6] = target: T2, human BKα channel (ZERO isoform) (human) (UniProt O95259)
T2 sequence: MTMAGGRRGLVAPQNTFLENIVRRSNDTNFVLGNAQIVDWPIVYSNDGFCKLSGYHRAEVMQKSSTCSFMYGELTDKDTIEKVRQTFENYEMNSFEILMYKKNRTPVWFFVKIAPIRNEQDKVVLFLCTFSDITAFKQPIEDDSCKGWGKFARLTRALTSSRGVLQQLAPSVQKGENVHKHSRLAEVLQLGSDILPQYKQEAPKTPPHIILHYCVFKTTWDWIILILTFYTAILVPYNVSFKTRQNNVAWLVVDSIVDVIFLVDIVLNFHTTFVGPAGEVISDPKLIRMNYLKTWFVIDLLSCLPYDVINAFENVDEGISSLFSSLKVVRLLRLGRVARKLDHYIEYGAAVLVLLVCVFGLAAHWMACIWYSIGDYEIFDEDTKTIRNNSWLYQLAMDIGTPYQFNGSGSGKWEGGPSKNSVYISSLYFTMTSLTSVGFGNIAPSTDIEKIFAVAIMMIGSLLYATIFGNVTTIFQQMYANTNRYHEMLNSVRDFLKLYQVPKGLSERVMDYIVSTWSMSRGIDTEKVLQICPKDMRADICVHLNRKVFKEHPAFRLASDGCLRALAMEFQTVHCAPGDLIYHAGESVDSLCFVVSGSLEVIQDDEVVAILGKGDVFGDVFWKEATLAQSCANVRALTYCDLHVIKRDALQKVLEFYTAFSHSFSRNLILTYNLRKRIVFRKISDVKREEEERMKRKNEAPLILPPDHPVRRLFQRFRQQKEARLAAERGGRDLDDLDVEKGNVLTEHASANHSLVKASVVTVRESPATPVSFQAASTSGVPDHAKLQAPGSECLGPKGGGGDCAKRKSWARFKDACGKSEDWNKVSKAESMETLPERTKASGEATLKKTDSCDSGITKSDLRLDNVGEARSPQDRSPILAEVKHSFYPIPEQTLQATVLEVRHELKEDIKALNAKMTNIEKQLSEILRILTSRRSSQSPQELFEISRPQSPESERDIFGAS

[7] = target: comprehensive panel of mammalian CNS-based proteins; experiment: radioligand binding; competition binding assays (NIMH PDSP): 10 microM LS3 against known radioligands for 33 targets; percent inhibition measured 4 times for each receptor; less than 50% inhibition considered insignificant

T1 sequence (Q12791 1-1178 isoform Q12791-5): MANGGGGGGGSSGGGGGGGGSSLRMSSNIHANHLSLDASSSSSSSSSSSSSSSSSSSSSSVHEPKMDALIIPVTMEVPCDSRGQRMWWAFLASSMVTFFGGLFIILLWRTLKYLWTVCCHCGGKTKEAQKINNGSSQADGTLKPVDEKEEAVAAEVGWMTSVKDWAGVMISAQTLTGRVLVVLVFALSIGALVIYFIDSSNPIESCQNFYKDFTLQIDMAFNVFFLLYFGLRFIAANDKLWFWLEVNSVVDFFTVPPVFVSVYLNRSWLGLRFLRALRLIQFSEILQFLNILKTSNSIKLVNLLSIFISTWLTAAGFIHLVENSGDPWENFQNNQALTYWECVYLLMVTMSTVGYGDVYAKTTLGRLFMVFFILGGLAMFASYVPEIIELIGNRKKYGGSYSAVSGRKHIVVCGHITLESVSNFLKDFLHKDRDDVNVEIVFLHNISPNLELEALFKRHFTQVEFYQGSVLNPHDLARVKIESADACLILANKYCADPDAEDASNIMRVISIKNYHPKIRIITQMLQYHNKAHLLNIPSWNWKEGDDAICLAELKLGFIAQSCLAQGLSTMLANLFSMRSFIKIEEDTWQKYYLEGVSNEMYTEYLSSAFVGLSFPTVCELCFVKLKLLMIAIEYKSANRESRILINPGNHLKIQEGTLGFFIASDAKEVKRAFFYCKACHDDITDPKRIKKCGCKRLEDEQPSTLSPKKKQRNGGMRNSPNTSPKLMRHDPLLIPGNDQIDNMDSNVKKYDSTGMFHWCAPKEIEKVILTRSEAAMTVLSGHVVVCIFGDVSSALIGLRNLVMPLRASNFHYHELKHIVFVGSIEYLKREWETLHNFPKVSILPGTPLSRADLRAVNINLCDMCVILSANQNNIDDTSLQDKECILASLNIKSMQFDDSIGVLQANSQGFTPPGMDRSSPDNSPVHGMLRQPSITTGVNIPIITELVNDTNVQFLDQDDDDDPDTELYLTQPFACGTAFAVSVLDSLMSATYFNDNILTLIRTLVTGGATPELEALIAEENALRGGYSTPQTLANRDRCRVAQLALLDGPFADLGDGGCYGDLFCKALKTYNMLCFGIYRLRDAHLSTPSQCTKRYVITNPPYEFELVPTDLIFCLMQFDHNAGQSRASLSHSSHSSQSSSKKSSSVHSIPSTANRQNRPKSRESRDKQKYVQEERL

## CC(C)(O)[C@H]1O[C@H]2CC[C@@]3(C)[C@@](O)(CC[C@H]4Cc5c([nH]c6ccccc56)[C@@]43C)C2=CC1=O [paxilline, reference compound]
[1]; 4 hours post I.P. injection vs. baseline, tone bursts
  mean ABR thresholds: No significant effect
[1]; systemic (I.P.) injection, 4 hrs vs. baseline, auditory nerve
  ABR peak 1 (P1) amplitude by intensity functions: Neither BK channel modulator reduced auditory nerve (P1)
[1]; systemic (I.P.) injection, 4 hrs vs. baseline, generators caudal to the IC (brainstem)
  ABR peak 4 (P4) amplitude by intensity functions: Neither BK channel modulator reduced auditory nerve (P1) or brainstem (P4) amplitudes
[2]; 1 μL of 10 μM paxilline, 51 units, F(12,430) = 4.146 P < 0.0001
  time course of suppression of sound evoked activity: suppression of sound evoked activity increasing out to 6 hours
[2]; 1 μL of 10 μM paxilline, 5 hours post-application, N = 5 mice
  reduction in sound driven activity: 87%
[2]; 1 μL of 10 μM paxilline, within 30 minutes, 51 units
  reduction of maximum spike counts: 50%
[2]; 1 μL of 10 μM paxilline, within 30 minutes, baseline 375, 51 units
  maximum spike counts: 180 spikes
[2]; 1 μL of 10 μM stock, from baseline pre-peptide, Fig. 5A,B representative eRFs
  reduction of sound evoked driven activity within the RF: approximately 50%
BK channel
  IC50 (BK channel block): low nanomolar
[3]
  ability to cross the BBB: can cross the BBB

## apamin: a small Kv toxin at 18 aa (CNCKAPETALCARRCQQH-NH2; disulfide 1-11, 3-15; ends not checked; UniProt P01500 28-45, looked up)
[4]; in contrast to many ion channel-targeted peptides
  CNS availability: higher CNS availability
[4]; intraperitoneal injection at a similar concentration used in this paper
  effect on learning and memory-related behaviors: alter learning and memory-related behaviors

## dendrotoxin
[4]
  LD50, intraventricular injection, relative to peripheral: ten thousand fold lower
  LD50, peripherally administered: tens

## linearized version of LS3: linearized version of LS3 without the disulfide bridge (CRRGLVQVC)
[5]
  effect on Po (post vs. pre peptide): no significant reduction in Po at any voltage
[5]; listed as linear peptide
  effect on Po (post vs. pre peptide): lack of effect
[5]; listed as reduced form of LS3
  effect on Po (post vs. pre peptide): did not alter Po
[5]; linearized version without the disulfide bridge, Po
  potency relative to cyclic LS3: less potent

## CRRGLVQVC (disulfide 1-9) [LS3 (… with a 1–9 disulfide bridge)]
[6]
  post-peptide Po relative to pre-peptide Po at 40 mV, 500 nM LS3: 0.54
[7]
  Ki: > 10 µM
  percent inhibition of radioligand binding at 10 microM LS3: < 50%
